Laboratory results published in PubChem BioAssay (NCI).
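Interpolation was linear, between the two tested concentrations surrounding the appropriate level; five concentrations were tested over 48 hours in 96-well plates. GI50: concentration for 50% inhibition of growth. TGI marks complete inhibition of growth.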

Assays:
Assay in all cases: NCI tumour cell line growth inhibition, 48 h
[1] = system: NCI-H460 lung
[2] = system: SNB-19 CNS
[3] = system: RXF 393 renal
[4] = system: SNB-75 CNS
[5] = system: HS 578T breast
[6] = system: CCRF-CEM leukemia
[7] = system: HT29 colon
[8] = system: IGROV1 ovarian
[9] = system: HOP-92 NSCLC
[10] = system: A549 NSCLC
[11] = system: UACC-257 melanoma
[12] = system: MALME-3M melanoma
[13] = system: 786-0 renal
[14] = system: BT-549 breast
[15] = system: SF-295 CNS
[16] = system: HOP-62 NSCLC
[17] = system: SK-OV-3 ovarian
[18] = system: A498 renal
[19] = system: SN12C renal
[20] = system: HCC-2998 colon
[21] = system: MDA-MB-435
[22] = system: SW-620 colon
[23] = system: NCI/ADR-RES ovarian
[24] = system: OVCAR-4 ovarian
[25] = system: RPMI-8226 leukemia
[26] = system: NCI-H226 lung
[27] = system: NCI-H522 lung
[28] = system: MOLT-4 leukemia
[29] = system: U251 CNS
[30] = system: SK-MEL-28 melanoma
[31] = system: SK-MEL-5 melanoma
[32] = system: ACHN renal
[33] = system: K-562 leukemia
[34] = system: PC-3 prostate
[35] = system: CAKI-1 renal
[36] = system: SF-268 CNS
[37] = system: OVCAR-3 ovarian
[38] = system: OVCAR-5 ovarian
[39] = system: HL-60(TB) leukemia
[40] = system: M14 melanoma
[41] = system: MCF7 breast
[42] = system: SR leukemia
[43] = system: TK-10 renal
[44] = system: HCT-116 colon
[45] = system: SK-MEL-2 melanoma
[46] = system: COLO 205 colon
[47] = system: EKVX NSCLC
[48] = system: DU-145 prostate
[49] = system: SF-539 CNS
[50] = system: HCT-15 colon
[51] = system: OVCAR-8 ovarian
[52] = system: UO-31 renal
[53] = system: KM12 colon
[54] = system: UACC-62 melanoma
[55] = system: MDA-MB-231 breast
[56] = system: T-47D breast

Cc1ccc2c(n1)C(=O)C(Cl)=C(Nc1cccc(C)c1C)C2=O
GI50 [1]: 2.25 µM | TGI [1]: 5.62 µM | GI50 [2]: 1.92 µM | TGI [2]: 5.08 µM | GI50 [3]: 1.52 µM | TGI [3]: 2.88 µM | GI50 [4]: 1.46 µM | TGI [4]: 2.92 µM | GI50 [5]: 2.21 µM | TGI [5]: 6.23 µM | GI50 [6]: 1.25 µM | TGI [6]: 5.22 µM | GI50 [7]: 2.68 µM | TGI [7]: 7.16 µM | GI50 [8]: 1.68 µM | TGI [8]: 3.72 µM | GI50 [9]: 1.98 µM | TGI [9]: 3.95 µM | GI50 [10]: 2.15 µM | TGI [10]: 5 µM | GI50 [11]: 1.44 µM | TGI [11]: 2.8 µM | GI50 [12]: 1.83 µM | TGI [12]: 3.3 µM | GI50 [13]: 1.9 µM | TGI [13]: 4.08 µM | GI50 [14]: 1.58 µM | TGI [14]: 3.04 µM | GI50 [15]: 1.84 µM | TGI [15]: 3.39 µM | GI50 [16]: 1.55 µM | TGI [16]: 2.96 µM | GI50 [17]: 1.59 µM | TGI [17]: 3.64 µM | GI50 [18]: 2.23 µM | TGI [18]: 5.19 µM | GI50 [19]: 1.67 µM | TGI [19]: 4.35 µM | GI50 [20]: 1.92 µM | TGI [20]: 3.77 µM | GI50 [21]: 1.89 µM | TGI [21]: 3.72 µM | GI50 [22]: 2.06 µM | TGI [22]: 4.82 µM | GI50 [23]: 1.92 µM | TGI [23]: 6.6 µM | GI50 [24]: 1.14 µM | TGI [24]: 2.42 µM | GI50 [25]: 1.35 µM | TGI [25]: 4.12 µM | GI50 [26]: 1.94 µM | TGI [26]: 4.39 µM | GI50 [27]: 1.96 µM | TGI [27]: 4.58 µM | GI50 [28]: 0.827 µM | TGI [28]: 3.35 µM | GI50 [29]: 1.55 µM | TGI [29]: 3.08 µM | GI50 [30]: 1.93 µM | TGI [30]: 3.7 µM | GI50 [31]: 1.62 µM | TGI [31]: 3.02 µM | GI50 [32]: 1.62 µM | TGI [32]: 3.19 µM | GI50 [33]: 0.77 µM | TGI [33]: 3.58 µM | GI50 [34]: 1.43 µM | TGI [34]: 3.48 µM | GI50 [35]: 1.57 µM | TGI [35]: 3.12 µM | GI50 [36]: 1.61 µM | TGI [36]: 3.48 µM | GI50 [37]: 0.372 µM | TGI [37]: 1.4 µM | GI50 [38]: 2.01 µM | TGI [38]: 3.93 µM | GI50 [39]: 1.15 µM | TGI [39]: 3.49 µM | GI50 [40]: 1.61 µM | TGI [40]: 3.19 µM | GI50 [41]: 1.16 µM | TGI [41]: 2.95 µM | GI50 [42]: 0.6 µM | TGI [42]: 3.21 µM | GI50 [43]: 2.47 µM | TGI [43]: 4.2 µM | GI50 [44]: 0.871 µM | TGI [44]: 2.6 µM | GI50 [45]: 1.91 µM | TGI [45]: 3.84 µM | GI50 [46]: 2.03 µM | TGI [46]: 4.72 µM | GI50 [47]: 1.58 µM | TGI [47]: 3.73 µM | GI50 [48]: 1.65 µM | TGI [48]: 3.2 µM | GI50 [49]: 1.67 µM | TGI [49]: 3.16 µM | GI50 [50]: 1.13 µM | TGI [50]: 2.73 µM | GI50 [51]: 2.02 µM | TGI [51]: 7.41 µM | GI50 [52]: 1.46 µM | TGI [52]: 2.95 µM | GI50 [53]: 1.95 µM | TGI [53]: 4.54 µM

CC(=O)OC[C@H]1OC(O)C=C[C@@H]1OC(C)=O (stereo partly specified)
GI50 [54]: 92 µM | TGI [54]: 176 µM | GI50 [1]: 155 µM | TGI [1]: 488 µM | GI50 [2]: 91.1 µM | TGI [2]: 170 µM | GI50 [3]: 96.8 µM | TGI [3]: 195 µM | GI50 [4]: 86.3 µM | TGI [4]: 159 µM | GI50 [5]: 107 µM | TGI [5]: 263 µM | GI50 [6]: 17.7 µM | TGI [6]: 89.8 µM | GI50 [10]: 767 µM | TGI [10]: 2490 µM | GI50 [11]: 87.1 µM | TGI [11]: 183 µM | GI50 [13]: 94.1 µM | TGI [13]: 178 µM | GI50 [14]: 89.2 µM | TGI [14]: 162 µM | GI50 [15]: 102 µM | TGI [15]: 198 µM | GI50 [16]: 110 µM | TGI [16]: 227 µM | GI50 [17]: 145 µM | TGI [17]: 407 µM | GI50 [19]: 88 µM | TGI [19]: 168 µM | GI50 [20]: 91.7 µM | TGI [20]: 171 µM | GI50 [21]: 82.4 µM | TGI [21]: 155 µM | GI50 [26]: 119 µM | TGI [26]: 267 µM | GI50 [55]: 87.7 µM | TGI [55]: 183 µM | GI50 [29]: 95.1 µM | TGI [29]: 187 µM | GI50 [30]: 80.4 µM | TGI [30]: 153 µM | GI50 [31]: 89 µM | TGI [31]: 161 µM | GI50 [32]: 81.5 µM | TGI [32]: 151 µM | GI50 [34]: 89.5 µM | TGI [34]: 170 µM | GI50 [35]: 91.1 µM | TGI [35]: 170 µM | GI50 [36]: 109 µM | TGI [36]: 236 µM | GI50 [38]: 95 µM | TGI [38]: 169 µM | GI50 [41]: 23.5 µM | TGI [41]: 123 µM | GI50 [43]: 98.1 µM | TGI [43]: 179 µM | GI50 [45]: 91.3 µM | TGI [45]: 177 µM | GI50 [56]: 33.3 µM | TGI [56]: 161 µM | GI50 [48]: 71.6 µM | TGI [48]: 143 µM | GI50 [49]: 77.8 µM | TGI [49]: 155 µM | GI50 [52]: 89.5 µM | TGI [52]: 168 µM | GI50 [53]: 93.9 µM | TGI [53]: 177 µM
